Laboratory results reported in patent US10829798B2, “DNA-linked enzyme-coupled assays” (THE REGENTS OF THE UNIVERSITY OF CALIFORNIA, priority 2014, dated 2020).

Key:
GT05 (UGT72B1 (Q9M156)) = target: T1, GT05 (UGT72B1 (Q9M156)) (Arabidopsis thaliana, UniProt Q9M156); test: qPCR DLEnCA, cell-free transcription/translation-derived GT05; format: biochemical; details: GT05 DNA 5 nM, chemical 1 mM, UDP-Glc 2 μM, probe 0.2 nM; low recovery = substrate glucosylated
T1 construct: made in house; host or cells: PURExpress In Vitro Protein Synthesis Kit (NEB E6800L), cell-free transcription/translation, linear DNA amplified from pET15b construct
T1 sequence (Q9M156 1-480): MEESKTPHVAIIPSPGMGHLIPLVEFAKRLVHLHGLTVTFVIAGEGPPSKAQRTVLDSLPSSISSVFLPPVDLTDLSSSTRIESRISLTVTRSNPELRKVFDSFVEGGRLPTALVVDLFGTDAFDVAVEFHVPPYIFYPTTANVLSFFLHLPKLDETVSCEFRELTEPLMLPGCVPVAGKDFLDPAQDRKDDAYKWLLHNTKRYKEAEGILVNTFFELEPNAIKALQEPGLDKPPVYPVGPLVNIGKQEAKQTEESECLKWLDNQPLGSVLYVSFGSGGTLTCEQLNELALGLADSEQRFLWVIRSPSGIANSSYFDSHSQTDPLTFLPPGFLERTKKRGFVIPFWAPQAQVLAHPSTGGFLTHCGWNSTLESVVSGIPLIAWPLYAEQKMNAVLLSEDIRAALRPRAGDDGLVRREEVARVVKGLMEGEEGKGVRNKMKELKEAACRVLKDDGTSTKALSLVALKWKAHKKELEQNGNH
Description: (§1) FIG. 4A-FIG. 4D. qPCR DLEnCA and substrate specificity studies. A. Chemicals used as substrates in subsequent assays: (i) known substrates of OleD; (ii) flavone library; (iii) known substrates of GT05 (UGT72B1 (Q9M156)) and GT06 (UGT89B1 (AT1 G73880)). B. DNA encoding OleD (5 nM) was incubated in a cell-free transcription/translation system for 3 hours at 37° C., followed by the addition of chemical (1 mM) and UDP-Glc (2 μM). After a subsequent incubation of 3 hours, TbGT and probe (0.2 nM) were added. After probe purification and MfeI digestion, probe integrity was identified using qPCR. Percent recovery of probe is reported (n=8; error bars=standard error). C. DNA encoding OleD (5 nM) was incubated for 3 hours at 37° C. in a cell-free transcription/translation system, followed by the addition of flavone (1 mM) and UDP-Glc (2 μM). After a subsequent incubation of 3 hours, TbGT and probe (0.2 nM) were added. After probe purification and MfeI addition, probe integrity was identified using qPCR. Percent recovery of probe is reported (n=8; error bars=standard error). D. DNA encoding OleD, GT05, or GT06 (5 nM) were incubated for 3 hours at 37° C. in a cell-free transcription/translation system, followed by the addition of chemical (1 mM) and UDP-Glc (2 μM). After a subsequent incubation of 3 hours, TbGT and probe (0.2 nM) were added. After probe purification and MfeI digestion, probe integrity was identified using qPCR. Percent recovery of probe is reported as a heat map (n=8) (specific recovery figures and percent error can be found in FIG. 16). *=p<0.05 vs. no chemical control.
PCR tubes were used for most reactions. All incubations were performed at 37° C. Assays were initiated upon the addition of linear DNA (5 nM final concentration) to 4 μl PURExpress Solution A and 3 μl PURExpress Solution B. Samples were incubated at 37° C. for 3 hours prior to addition of UDP-Glucose and chemical (1 mM final concentration) in DMSO. Samples were incubated for an additional 3 hours prior to addition of 1 unit T4 Phage β-glucosyltransferase containing 0.2 nM probe. […]

[1] = target: T2, GT06 (UGT89B1 (AT1G73880)) (Arabidopsis thaliana, UniProt Q9C9B0); test: qPCR DLEnCA, cell-free transcription/translation-derived GT06; format: biochemical; details: GT06 DNA 5 nM, chemical 1 mM, UDP-Glc 2 μM, probe 0.2 nM; low recovery = substrate glucosylated
T2 sequence (Q9C9B0 1-473): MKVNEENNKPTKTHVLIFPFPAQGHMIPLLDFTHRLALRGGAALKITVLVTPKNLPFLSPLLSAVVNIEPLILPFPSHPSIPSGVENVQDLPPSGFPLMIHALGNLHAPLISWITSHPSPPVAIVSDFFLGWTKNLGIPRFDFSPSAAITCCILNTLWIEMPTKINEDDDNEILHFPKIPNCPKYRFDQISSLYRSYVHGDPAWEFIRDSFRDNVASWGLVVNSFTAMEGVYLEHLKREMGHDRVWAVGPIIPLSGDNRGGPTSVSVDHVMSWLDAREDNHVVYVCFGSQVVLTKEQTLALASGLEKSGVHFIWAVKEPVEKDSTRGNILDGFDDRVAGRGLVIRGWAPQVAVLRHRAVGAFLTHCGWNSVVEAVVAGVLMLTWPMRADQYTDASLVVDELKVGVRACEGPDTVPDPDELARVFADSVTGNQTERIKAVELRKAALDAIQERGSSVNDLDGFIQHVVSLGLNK
Description: as §1, with “After probe purification and MfeI digestion, probe integrity was identified using qPCR. Percent recovery of probe is reported as a heat map (n=8) (specific recovery figures and percent error can be found in FIG. 16). *=p<0.05 vs. no chemical control.” left out

| Structure (SMILES) | recovery of probe (GT05 (UGT72B1 (Q9M156))) [%] | recovery of probe [1] [%] |
| --- | --- | --- |
| O=c1c(O)c(-c2ccc(O)cc2)oc2cc(O)cc(O)c12 [I, kaempferol] | 32 |  |
| O=C(O)c1ccc(O)cc1 [XI, 4-hydroxybenzoic acid] |  | 25 |
